What was measured:
Test in all cases: relative viability (nuclei count vs DMSO), 5 days (fraction); higher = more cells survive
CUDC-101 + Dasatinib = compound: C#Cc1cccc(Nc2ncnc3cc(OC)c(OCCCCCCC(=O)NO)cc23)c1 [CUDC-101] + Cc1nc(Nc2ncc(C(=O)Nc3c(C)cccc3Cl)s2)cc(N2CCN(CCO)CC2)n1 [Dasatinib] (partner 0.075 µM)
How it was run: (§1)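 Lung cancer cell lines in 1536-well plates were dosed by pin tool the day after seeding, either with one drug alone or with a fixed anchor-drug dose plus five library-drug doses (not always all listed) in √10 steps. After 5 days, cells were fixed and their nuclei stained in one step (final 0.05% Triton X-100, 1% formaldehyde, 1 ug/ml Hoechst), then counted on 4× images. Relative viability is the nuclei count in treated wells divided by that in vehicle wells. Values are medians of duplicate plates.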

Vandetanib + Palbociclib = compound: COc1cc2/c(=N/c3ccc(Br)cc3F)nc[nH]c2cc1OCC1CCN(C)CC1 [Vandetanib] + CC(=O)c1c(C)c2cnc(Nc3ccc(N4CCNCC4)cn3)nc2n(C2CCCC2)c1=O [Palbociclib] (partner 0.5 µM)
How it was run: as §1

Vandetanib + Crizotinib = compound: COc1cc2/c(=N/c3ccc(Br)cc3F)nc[nH]c2cc1OCC1CCN(C)CC1 [Vandetanib] + C[C@@H](Oc1cc(-c2cnn(C3CCNCC3)c2)cnc1N)c1c(Cl)ccc(F)c1Cl [Crizotinib] (partner 1 µM)
How it was run: as §1

Vandetanib + Phenformin = compound: COc1cc2/c(=N/c3ccc(Br)cc3F)nc[nH]c2cc1OCC1CCN(C)CC1 [Vandetanib] + N=C(N)NC(=N)NCCc1ccccc1 [Phenformin] (partner 250 µM)
How it was run: as §1

Row | Cell Line | relative viability (CUDC-101 + Dasatinib; first compound 0.01 µM) | relative viability (CUDC-101 + Dasatinib; first compound 0.03162 µM) | relative viability (CUDC-101 + Dasatinib; first compound 0.1 µM) | relative viability (CUDC-101 + Dasatinib; first compound 0.3162 µM) | relative viability (CUDC-101 + Dasatinib; first compound 1 µM) | relative viability (Vandetanib + Palbociclib; first compound 0.02 µM) | relative viability (Vandetanib + Palbociclib; first compound 0.06325 µM) | relative viability (Vandetanib + Palbociclib; first compound 0.2 µM) | relative viability (Vandetanib + Palbociclib; first compound 0.6325 µM) | relative viability (Vandetanib + Palbociclib; first compound 2 µM) | relative viability (Vandetanib + Crizotinib; first compound 0.02 µM) | relative viability (Vandetanib + Crizotinib; first compound 0.06325 µM) | relative viability (Vandetanib + Crizotinib; first compound 0.2 µM) | relative viability (Vandetanib + Crizotinib; first compound 0.6325 µM) | relative viability (Vandetanib + Crizotinib; first compound 2 µM) | relative viability (Vandetanib + Phenformin; first compound 0.02 µM) | relative viability (Vandetanib + Phenformin; first compound 0.06325 µM) | relative viability (Vandetanib + Phenformin; first compound 0.2 µM) | relative viability (Vandetanib + Phenformin; first compound 0.6325 µM) | relative viability (Vandetanib + Phenformin; first compound 2 µM)
1 | NCI-H2405 | 0.217 | 0.193 | 0.228 | 0.214 | 0.191 | 0.494 | 0.39 | 0.514 | 0.592 | 0.514 | 0.876 | 0.664 | 0.875 | 0.88 | 0.795 | 0.376 | 0.302 | 0.374 | 0.39 | 0.202
2 | NCI-H3122 | 0.82 | 0.867 | 0.798 | 0.783 | 0.454 | 0.198 | 0.183 | 0.126 | 0.178 | 0.228 | 0.291 | 0.257 | 0.266 | 0.261 | 0.249 | 0.348 | 0.374 | 0.327 | 0.303 | 0.333
3 | PC-3 [JPC-3] | 0.954 | 0.932 | 0.753 | 0.483 | 0.542 | 0.509 | 0.527 | 0.592 | 0.553 | 0.464 | 0.96 | 0.943 | 0.935 | 0.811 | 0.52 | 0.471 | 0.466 | 0.496 | 0.334 | 0.331
4 | PC-14 | 0.292 | 0.232 | 0.0804 | 0.0597 | 0.0289 | 0.536 | 0.436 | 0.0488 | 0.117 | 0.0605 | 0.94 | 0.853 | 0.897 | 0.386 | 0.231 | 0.576 | 0.478 | 0.215 | 0.235 | 0.125
5 | RERF-LC-KJ | 0.793 | 0.891 | 0.765 | 0.793 | 0.421 | 1.05 | 1.03 | 0.673 | 0.993 | 0.869 | 0.83 | 0.789 | 0.871 | 0.883 | 0.794 | 0.436 | 0.379 | 0.37 | 0.375 | 0.335
6 | SK-LU-1 | 0.189 | 0.219 | 0.177 | 0.207 | 0.196 | 0.387 | 0.314 | 0.363 | 0.376 | 0.354 | 1.06 | 0.667 | 0.862 | 0.909 | 0.732 | 0.518 | 0.405 | 0.464 | 0.491 | 0.558
7 | SK-MES-1 | 0.333 | 0.394 | 0.367 | 0.417 | 0.207 | 0.349 | 0.292 | 0.243 | 0.332 | 0.294 | 1.01 | 0.902 | 0.938 | 0.926 | 0.875 | 0.657 | 0.608 | 0.62 | 0.581 | 0.471
8 | SW 1573 | 0.62 | 0.764 | 0.517 | 0.498 | 0.358 | 0.413 | 0.421 | – | 0.29 | 0.403 | 0.896 | 0.704 | 0.7 | 0.815 | 0.849 | 0.357 | 0.382 | 0.397 | 0.347 | 0.351
